A short description of one data set: MTT assay. The conditions noted are these: human, HEK-293 cells (normal reference cell line), HEK-293 (normal cells), read-out: IC50, cytotoxicity. It is filed as cell-based. How it is done:
(§1) Therefore, the whole set of compounds were tested by using MTT assay in order to check their overall cytotoxic effect. The growth of cells was monitored after 24 and 48 h of incubation with the increased concentrations (1–100 µg/ml) of the thiosemicarbazide derivatives. […] This confirms that the compounds tested combine different mechanisms of anticancer activity, and DNA topoisomerase II inhibition is only one of them.
(§2) Cytotoxicity of the synthesised compounds were examined against a panel of the cancer cell lines, MCF-7 (estrogen-dependent human breast cancer cells), MDA-MB-231 (oestrogen-independent human breast cancer cells), SCC- 25 (squamous cell carcinoma of the tongue), FaDu (squamous cell carcinoma of the pharynx), A- 549 (human lung carcinoma), AGS (human gastric adenocarcinoma), LS-180, HT-29 (colon cancer cell lines), T98G (glioblastoma cells), A375 (melanoma cells). Human embryonic kidney (HEK-293) cells and human normal skin fibroblasts (CRL-2072) were used as reference cell lines. The investigated cell lines were obtained from American Type Culture Collection (ATCC; Manassas, VA, USA). A375, MCF-7, MDA-MB-231, T98G cells were cultured in Dulbecco’s Modified Eagle’s Medium (DMEM) (Sigma Aldrich, St. Louis, MO, USA) supplemented with 10% heat inactivated foetal bovine serum (FBS), penicillin (100 U/mL), and streptomycin (100 μg/mL). SCC-25 cells were cultured in 1:1 mixture of Dulbecco’s modified Eagle’s medium and Ham’s F12 Medium (Sigma Aldrich, St. Louis, MO, USA) supplemented with 400 ng/ml hydrocortisone, 10% FBS, penicillin (100 U/mL), and streptomycin (100 μg/mL). A549 and AGS cells were maintained in F-12K Medium (Sigma Aldrich, St. Louis, MO, USA). LS-180 and FaDu cells were cultured in Eagle’s Minimum Essential Medium. HT-29 cells were maintained in McCoy’s 5 A Medium (Sigma Aldrich, St. Louis, MO, USA) supplemented with 10%FBS, penicillin (100 U/mL), and streptomycin (100 μg/mL). All the cells were maintained at 37 °C in a humidified atmosphere of 5% CO2.
(§3) The synthesised compounds were dissolved in DMSO in order to obtain stock solutions. At the day of the experiment, the suspension of cells (1 × 10^5 cells/mL) in the respective medium was applied to a 96-well plate at 100 μL per well. […] The control cells were cultured only with a medium containing 2% FBS. Cytotoxicity of DMSO was also checked at concentrations present in respective dilutions of stock solution. After 24 h (or 48 h) of incubation, 15 μL of MTT working solution (5 mg/mL in PBS) was added to each well. The plate was incubated for 3 h. Subsequently, 100 μL of 10% SDS solution was added to each well. Cells were incubated overnight at 37 °C to dissolve the precipitated formazan crystals. The concentration of the dissolved formazan was evaluated by measuring the absorbance at λ = 570 nm, using a microplate reader (Epoch, BioTek Instruments, Inc., Winooski, VT, USA). At least two independent experiments were performed in triplicates. The results of the MTT assay were expressed as mean ± SD. […] IC50 values of the investigated derivatives and standards were calculated using the IC50 calculator.[23]
(In general: Tetrazolium dyes change colour on reduction, which living cells bring about.)

Another data set has as its system A375 (melanoma cells). Description: MTT assay. It counts as cell-based. The note with it: Homo sapiens, read-out: IC50, cytotoxicity. How it is done: as §1, §2, §3
Data set [1] relates to A549 (human lung carcinoma). Description: MTT assay. It counts as cell-based. The conditions noted are these: read-out: IC50, cytotoxicity. How it is done:
as §1, §2, §3

Data set [2] relates to AGS (human gastric adenocarcinoma). Description: MTT assay. The conditions noted are these: read-out: IC50, cytotoxicity. It counts as cell-based. As to the method:
as §1, §2, §3

The test system of data set [3] is FaDu (squamous cell carcinoma of the pharynx). Description: MTT assay. It is filed as cell-based. The note with it: Homo sapiens, read-out: IC50, cytotoxicity. As to the method: as §1, §2, §3
In data set [4] the test system is HT-29 (colon cancer cell line). Description: MTT assay. It is filed as cell-based. The note with it: Homo sapiens, HT-29, MTT, read-out: IC50, cytotoxicity. As to the method:
as §1, §2, §3

The subject of data set [5] is LS180 (colon cancer cell line). Description: MTT assay. The note with it: Homo sapiens, read-out: IC50, cytotoxicity. It counts as cell-based. As to the method:
as §1, §2, §3

Data set [6] relates to MCF-7 (estrogen-dependent human breast cancer cells). Description: MTT assay. It is filed as cell-based. The conditions noted are these: MCF7, MCF-7, MTT, read-out: IC50, cytotoxicity. As to the method: as §1, §2, §3
For data set [7], the system named is MDA-MB-231 (estrogen-independent human breast cancer cells). Description: MTT assay. The note with it: MDA-MB-231, MTT, read-out: IC50, cytotoxicity. It counts as cell-based. How it is done: as §1, §2, §3
For data set [8], the system named is SCC-25 (squamous cell carcinoma of the tongue). Description: MTT assay. It counts as cell-based. The conditions noted are these: Homo sapiens, SCC-25, MTT, read-out: IC50, cytotoxicity. How it is done: as §1, §2, §3
Data set [9] relates to T98G (glioblastoma cells). Description: MTT assay. It counts as cell-based. The note with it: Homo sapiens, read-out: IC50, cytotoxicity. As to the method:
as §1, §2, §3

What is called IC50 is the point on the concentration scale where inhibition reaches its midpoint. As usually defined, the melting point is the temperature, or range, at which the solid turns liquid.

Converted amounts (≈) assume the structure as drawn. Where two headings read alike, the source gives them in different places. Where only a bound is given, the exact number is not on record here.

As for `O=C(NC(=S)NNC(=O)c1ccccc1[N+](=O)[O-])c1ccc([N+](=O)[O-])cc1` [Compound 6, 1-(2-Nitrobenzoyl)-4-(4-nitrobenzoyl)thiosemicarbazide], the IC50 at 24 h in the data set “MTT assay” was > 100 µg/mL. Moreover, in “MTT assay”, the IC50 at 48 h is 60.1 µg/mL (≈ 154 µM). Moreover, the IC50 was > 100 µg/mL in the data set with A375 (melanoma cells) (A-375, 24h); 7.98 µg/mL (≈ 20.5 µM) in the data set on A375 (melanoma cells) (A-375, 48 h); 20.8 µg/mL (≈ 53.3 µM) in data set [1] (24h); 23.4 µg/mL (≈ 60.2 µM) in [1] (48h); 23.5 µg/mL (≈ 60.3 µM) in [2] (24h); 29.8 µg/mL (≈ 76.5 µM) in data set [2] (48 h). Further, the IC50 was 12.9 µg/mL (≈ 33.1 µM) in [3] (24h); 14.8 µg/mL (≈ 37.9 µM) in data set [3] (48 h); 22.8 µg/mL (≈ 58.5 µM) in data set [4] (24h); 6.78 µg/mL (≈ 17.4 µM) in [4] (48 h); > 100 µg/mL in [5] (24h); 10.4 µg/mL (≈ 26.7 µM) in data set [5] (48 h). In addition, the IC50 in data set [6] (24h) was > 100 µg/mL; in data set [6] (48h), 15.9 µg/mL (≈ 40.9 µM); in data set [7] (24h) it was > 100 µg/mL; in data set [7] (48h), 16.8 µg/mL (≈ 43.3 µM); in data set [8] (24h), 26 µg/mL (≈ 66.7 µM); in data set [8] (48 h), 9.78 µg/mL (≈ 25.1 µM). The values for the IC50 in data set [9] (24h) and in data set [9] (48h) were 8.41 µg/mL (≈ 21.6 µM) and 9.78 µg/mL (≈ 25.1 µM), respectively.

With `O=C(Cc1cccc2ccccc12)NNC(=S)NC(=O)c1ccccc1` [Compound 9, 4-Benzoyl-1-[(naphth-1-yl)acetyl]thiosemicarbazide], the melting point was 164 to 166 °C. Further, in the data set “MTT assay”, the 50% inhibitory concentration (IC50) at 24 h was determined as 67 µg/mL (≈ 184 µM) and the IC50 at 48 h was 23 µg/mL (≈ 63.4 µM). Besides, the IC50 in the data set on A375 (melanoma cells) (A-375, 24h) was > 100 µg/mL. For the same compound, the IC50 in the data set on A375 (melanoma cells) (A-375, 48 h) stood at 8.14 µg/mL (≈ 22.4 µM). The IC50 in [1] (24h) is > 100 µg/mL. Moreover, the IC50 in data set [1] (48h) was > 100 µg/mL. In addition, the IC50 in data set [2] (24h) was > 100 µg/mL. For the same compound, the IC50 in data set [2] (48 h) was determined as 19.7 µg/mL (≈ 54.1 µM). For the same compound, in [3] (24h), the IC50 was 28.2 µg/mL (≈ 77.5 µM). The IC50 in [3] (48 h) was found to be 19.5 µg/mL (≈ 53.7 µM). The IC50 in data set [4] (24h) is > 100 µg/mL. Besides, in data set [4] (48 h), the IC50 stood at 5.23 µg/mL (≈ 14.4 µM). In addition, the IC50 in [5] (24h) was > 100 µg/mL. Besides, in data set [5] (48 h), the IC50 is 19.8 µg/mL (≈ 54.5 µM). Further, the IC50 in data set [6] (24h) was > 100 µg/mL. Also, the IC50 in [6] (48h) was 16.4 µg/mL (≈ 45 µM). Besides, the IC50 in [7] (24h) is > 100 µg/mL. The IC50 in [7] (48h) was > 100 µg/mL. The IC50 in data set [8] (24h) came to 32.2 µg/mL (≈ 88.6 µM). Further, the IC50 in [8] (48 h) is 34.5 µg/mL (≈ 94.9 µM). In addition, in data set [9] (24h), the IC50 is > 100 µg/mL. In addition, the IC50 in data set [9] (48h) stood at 17.4 µg/mL (≈ 47.8 µM).

The compound `Cc1cccc(C(=O)NC(=S)NNC(=O)c2ccccc2[N+](=O)[O-])c1` [Compound 5, 4-(3-Methylobenzoyl)-1-(2-nitrobenzoyl)thiosemicarbazide] gave a melting point of 194 to 195 °C. Also, in “MTT assay”, the IC50 at 24 h is 78.1 µg/mL (≈ 218 µM) and the IC50 at 48 h came out at 24.6 µg/mL (≈ 68.6 µM). The IC50 in the data set on A375 (melanoma cells) (A-375, 24h) was found to be 89.3 µg/mL (≈ 249 µM). Further, the half-maximal inhibitory concentration (IC50) in the data set with A375 (melanoma cells) (A-375, 48 h) was 38.5 µg/mL (≈ 107 µM). In addition, the IC50 in [1] (24h) was > 100 µg/mL. The IC50 in data set [1] (48h) is > 100 µg/mL. The IC50 in data set [2] (24h) was > 100 µg/mL. Besides, in [2] (48 h), the IC50 is 63.9 µg/mL (≈ 178 µM). The IC50 in data set [3] (24h) was > 100 µg/mL. The IC50 in data set [3] (48 h) was 31.7 µg/mL (≈ 88.4 µM). In addition, the IC50 in data set [4] (24h) stood at 45.2 µg/mL (≈ 126 µM). Besides, the IC50 in [4] (48 h) was 12.3 µg/mL (≈ 34.3 µM). In [5] (24h), the IC50 was > 100 µg/mL. Also, the IC50 in data set [5] (48 h) came out at 19.8 µg/mL (≈ 55.4 µM). Moreover, the IC50 in [6] (24h) was > 100 µg/mL. Also, the IC50 in data set [6] (48h) is 28.1 µg/mL (≈ 78.5 µM). For the same compound, the IC50 in data set [7] (24h) was > 100 µg/mL. The IC50 in data set [7] (48h) was found to be 56.3 µg/mL (≈ 157 µM). The IC50 in data set [8] (24h) was > 100 µg/mL. The IC50 in data set [8] (48 h) was 17.3 µg/mL (≈ 48.3 µM). Besides, in [9] (24h), the IC50 was > 100 µg/mL. In addition, in data set [9] (48h), the half-maximal inhibitory concentration (IC50) came to 30.1 µg/mL (≈ 83.9 µM).

Values taken from paper PMC9648375, “Identification of the first-in-class dual inhibitors of human DNA topoisomerase IIα and indoleamine-2,3-dioxygenase 1 (IDO 1) with strong anticancer properties” (Journal of Enzyme Inhibition and Medicinal Chemistry, 2022).
